In patent publication US20090264648A1, “SYNTHESIS OF PYRAZOLES” (WYETH, priority 2008, published 2009):
Entries after “also recorded” stand apart in the source; their conditions may differ. Where a name gives a salt, the structure may show the parent alone. Read-outs that look alike come from different tables or passages of the source. Blank lines part the entries; values can stand above or below the compound they belong to.

What was measured:
[1] = Hygroscopicity noted on isolation of the hydrochloride salt; format: physicochemical; details: salt precipitated from DCM with HCl in Et2O
Protocol: 5-(4-acetyl-[1,4]diazepan-1-yl)-pentanoic acid [5-(4-methoxy-phenyl)-1H-pyrazol-3-yl]-amide (1.05 g, 2.54 mmol) was dissolved in a minimum amount of DCM (5 mL) and cooled to 0° C. HCl (2.0 M in Et20, 1.4 mL, 2.89 mmol) was added and the mixture stirred at rt until precipitation of the salt was complete (about 10 min.). The solid was filtered, washed with Et2O several times, and dried in a dessicator to yield 1.09 g of the hydrochloride salt (2.42 mmol, 95% yield). […] MS (ES+): 414.26 (M+H)^+.

[2] = Hygroscopicity test / Dynamic Vapor Sorption (DVS) of hydrochloride salt crystal forms; format: physicochemical; details: for Water absorbed eventually: 90% RH
Protocol: Evidence of a hydrochloride hydrate was not observed after the hygroscopicity test.
Dynamic Vapor Sorption (DVS) was done at 25-26° C.

SMILES: COc1ccc(-c2cc(NC(=O)CCCCN3CCCN(C(C)=O)CC3)[nH]n2)cc1 (as salt: hydrochloric acid salt) [5-(4-Acetyl-[1,4]diazepan-1-yl)-pentanoic acid [5-(4-methoxy-phenyl)-2H-pyrazol-3-yl]-amide]
melting point: 185 °C

SMILES: COc1ccc(-c2cc(NC(=O)CCCCN3CCCN(C(C)=O)CC3)n[nH]2)cc1.Cl [Compound I, 5-(4-acetyl-1,4-diazepan-1-yl)-N-(5-(4-methoxyphenyl)-1H-pyrazol-3-yl)pentanamide hydrogen chloride]
Hygroscopicity of the sample [1]: extreme hygroscopicity
melting point: 132 to 133 °C

SMILES: COc1ccc(-c2cc(NC(=O)CCCCN3CCCN(C(C)=O)CC3)[nH]n2)cc1 [Crystal Form V, 5-(4-Acetyl-[1,4]diazepan-1-yl)-pentanoic acid [5-(4-methoxy-phenyl)-2H-pyrazol-3-yl]-amide]
Hygroscopicity (in words), Crystal Form Table [2]: Hygroscopic
Water at RH 50% [2]: 7%

SMILES: COc1ccc(-c2cc(NC(=O)CCCCN3CCCN(C(C)=O)CC3)[nH]n2)cc1 [Form I, 5-(4-acetyl-1,4-diazepan-1-yl)-N-(5-(4-methoxyphenyl)-1H-pyrazol-3-yl)pentanamide hydrochloric salt Form I]
Behaviour of absorbed water on decreasing RH [2]: loses it without significant hysteresis on decreasing RH; also recorded: loses the water as RH decreases
Evidence of a hydrochloride hydrate after the hygroscopicity test [2]: not observed
Hygroscopicity (in words) [2]: relatively non-hygroscopic
Moisture gained ([2]; 70-100% RH): at least 2%
Water absorbed eventually ([2]; DVS at 25-26° C.): up to 2%
Relative humidity (RH) at which the form picks up moisture ([2]; DVS at 25-26° C.): about 50%
Moisture gained when equilibrated ([2]; RH less than or equal to 70%): about 0.5%
Hygroscopicity (in words), Crystal Form Table ([2]; listed as Crystal Form I): Non-hygroscopic

The remaining lines, values ahead:

Hygroscopicity (in words) [2]: non-hygroscopic
Water absorbed eventually ([2]; DVS at 25-26° C.): up to 7%
Relative humidity (RH) at which the form picks up moisture ([2]; DVS at 25-26° C.): about 20%
Water held at low RH ([2]; RH 0%, DVS at 25-26° C.): 2%
Water at RH 50% ([2]; listed as Crystal Form II): hygroscopic (5%
Hygroscopicity (in words), Crystal Form Table ([2]; listed as Crystal Form II): Somewhat
SMILES: COc1ccc(-c2cc(NC(=O)CCCCN3CCCN(C(C)=O)CC3)[nH]n2)cc1 [Form II, 5-(4-acetyl-1,4-diazepan-1-yl)-N-(5-(4-methoxyphenyl)-1H-pyrazol-3-yl)pentanamide hydrochloric salt Form II]

Hygroscopicity (in words), Crystal Form Table ([2]; listed as Crystal Form III): Hygroscopic
SMILES: COc1ccc(-c2cc(NC(=O)CCCCN3CCCN(C(C)=O)CC3)[nH]n2)cc1 [Form III, 5-(4-Acetyl-[1,4]diazepan-1-yl)-pentanoic acid [5-(4-methoxy-phenyl)-2H-pyrazol-3-yl]-amide]
